Assay results as given in publication PMC5608758, “A brain-targeting lipidated peptide for neutralizing RNA-mediated toxicity in Polyglutamine Diseases” (Scientific Reports, 2017).
“And” between values parts separate entries of the source, which are not always exact repeats. Equal values may be shown once. “Also recorded” adds a separate entry of the source. Residues, ends and D or L forms follow the SMILES beside them. *: point of attachment. Palmitoyl = CCCCCCCCCCCCCCCC(=O)*

Columns and labels:
[1] = Plasma pharmacokinetic study in SD rat
Experimental: SD rats (180–200 g) were anesthetized with an intraperitoneal injection of ketamine (60 mg/kg) and xylazine (6 mg/kg) and received a minor surgery of cannulation with a polythene tube (0.4 mm i.d., 0.8 mm o.d., Harvard Apparatus, Holliston, MA, USA) in the left jugular vein. The rats received an overnight recovery with free access to food and water. […] For the pharmacokinetic study, after the drug administration, blood samples were collected from the catheter at appropriate time intervals (2, 5, 10, 15, 20, 30, 45, 60, and 90 min). After each collection, 0.2 mL of saline containing 25 IU heparin was injected to compensate for the blood loss. Plasma was collected after centrifugation at 8000 rcf for 3.5 min and stored at −80°C until analysis. For brain uptake study, at 20 min, the rat was anesthetized and perfused by 500 mL saline, and the whole brain was collected. The brain was wiped by tissue paper to remove excess water, meninges and blood vessels followed by storage at −80 °C until analysis.
Aliquot of plasma sample (80 μL) was mixed with 160 μL acetonitrile. The mixture was vortexed for 1 min and followed by centrifugation at 13000 rcf for 10 min. The supernatant was collect and subjected to LC/MS/MS analysis.
Agilent 6430 Triple Quadrupole LC/MS/MS system (Agilent Technologies, CA, USA) was employed for the analysis. For analysis of P3V8, chromatographic separation was achieved on a SunFire C8 Column (250 mm × 4.6 mm, 5 µm). The mobile phase of water containing 0.2% formic acid (A) and acetonitrile (B) was used with a gradient elution (0–5 min, 20–70% B). The flow rate was 0.8 mL/min. Multiple reactions monitoring (MRM) with fragmentation transition of 500 to 129 in positive ion mode was employed for quantization of P3V8. […] Mobile phase of water (A) and acetonitrile (B) was used. The gradient elution for plasma samples was 0–4 min, 30–95% B, and for brain samples was 0–9 min, 10–95% B. The flow rate was 0.8 mL/min.
Plasma concentration verse time profiles were analyzed by WinNonlin (Pharsight Corporation, Mountain View, CA, USA, Version 2.1) to obtain the pharmacokinetics parameters. Other data were analyzed by one-way ANOVA followed by post hoc Tukey test or unpaired t-test. “*”, “**”, “***” and “****” represent P < 0.05, P < 0.01, P < 0.001 and P < 0.0001 respectively, which are considered statistically significant.

[2] = tested on: HEK293 cells; experiment: Cellular uptake studies in HEK293 cells; type: in vitro ADME; conditions: 3 hr, 37 °C, cell lysate, LC/MS, normalized to total protein; for cellular uptake level: 100 nM peptide
Experimental: HEK293 cells were seeded on a 6-well plate at a density of 6 × 10^5 and cultured overnight at 37 °C with 5% CO2 in DMEM supplemented with 10% FBS and 1% penicillin-streptomycin. Cells were then treated with 100, 500 or 1000 nM of respective peptide at 37 °C for 3 hr. After treatment, the cells were washed with ice-cold PBS and then lysed by 2% SDS solution. Aliquot (100 µl) of the cell lysate was added with 200 µl acetonitrile and centrifuged at 13000 rcf for 10 min to precipitate the proteins. The collected supernatant was subjected to LC/MS analysis. The protein concentration of the cell lysate was measured using a bicinchoninic acid protein assay kit following Sigma’s protocol.

[3] = tested on: primary rat cortical neurons; experiment: LDH cytotoxicity in primary neurons; type: cell-based; conditions: 0.01 nM to 1 µM, 72 hr; P3V8 transfected with DeliverX; 3 independent experiments
Experimental: HEK293 cells were cultured at 37 °C with 5% CO2 in DMEM supplemented with 10% FBS and 1% penicillin-streptomycin. Primary rat cortical neurons were isolated and cultured as previously described. Transient transfection of HEK293 cells was performed using Lipofectamine 2000 (Life Technologies). P3V8 were delivered to HEK293 cells using the DeliverX (DX) Peptide Transfection Kit (Affymetrix) 4 hr after DNA transfection. At least two batches of independently synthesized peptides were used in the experiments. […]
cortical neurons. A density of […] of primary rat cortical neurons were seeded on culture […]
and 1000 nM of P3V8 peptide (transfected with DeliverX). The lactate dehydrogenase (LDH) cytotoxicity activity was measured 72 hr post-treatment. Fold change of LDH activity was normalized to untreated cells. Data are expressed as mean ± S.E.M. for 3 independent experiments. NS indicates no significance.
(1 picture or pasted object on this page, not shown here)
The LDH cytotoxicity activity was measured 72 hr post-treatment. Fold change of LDH activity was normalized to untreated cells. Data are expressed as mean ± S.E.M. for 3 independent experiments. NS indicates no significance.

[4] = In vitro stability in rat plasma; type: in vitro ADME; conditions: for remaining at 3 h, 2000 ng/mL: rat; for remaining at 1 h, 500 ng/mL / remaining at 3 h, 1000 ng/mL: LLOQ 12.5 ng/mL P3V8
Experimental: (§1) Sprague-Dawley (SD) rats (male, 180-200 g) were supplied by the Laboratory Animal Services Centre at The Chinese University of Hong Kong. All animal studies were conducted under the approval of the Animal Ethics Committee of The Chinese University of Hong Kong, and were performed in accordance with relevant guidelines and regulations. Blank rat brain homogenate was prepared by ultrasonic probe homogenization (Micoson XL-2000, Misonix, […], USA) of brains collected from the control rats. Blank rat plasma was prepared by centrifugation (8000 rcf for 3.5 min) of blood collected from control rats. […] The mixtures were incubated at 37 °C with 100 rpm in a water bath for 1 or 3 hr. […] The supernatant was collected for LC/MS/MS analysis.

[5] = In vitro stability in rat brain homogenate; type: in vitro ADME; conditions: for remaining at 1 h, 1000 ng/mL / remaining at 1 h, 2000 ng/mL: incubation 1 hr; for remaining at 1 h, 2000 ng/mL: 100 rpm
Experimental: as §1

[6] = SD rats, intranasal, 3 μmol/kg, pre-treated with 0.5% chitosan, mean ± S.E.M. of 6
[7] = SD rats, intranasal, 3 μmol/kg, pre-treated with 0.5% chitosan, plasma, mean ± S.E.M. of 6
[8] = Sprague-Dawley, rat, in vivo, iv, 3 μmol/kg
[9] = male, Sprague-Dawley, rat plasma, 500 ng/mL, 37 °C, incubation 1 hr, LC/MS/MS, mean ± S.E.M. of 5, read-out: Percentage of remained
[10] = male, Sprague-Dawley, rat plasma, 1000 ng/mL, 37 °C, incubation 3 hr, LC/MS/MS, mean ± S.E.M. of 5, read-out: Percentage of remained
[11] = rat plasma, 2000 ng/mL, 37 °C, 100 rpm, incubation 1 hr, LC/MS/MS, mean ± S.E.M. of 5 independent experiments
[12] = male, Sprague-Dawley, rat, tissue homogenate, read-out: Percentage of remained
[13] = Sprague-Dawley, rat, plasma, iv, 3 μmol/kg

For `CCCCCCCCCCCCCCCC(=O)N[C@@H](CC(=O)O)C(=O)NCC(=O)N[C@@H](CCCCN)C(=O)N[C@@H](CO)C(=O)N[C@@H](CCCCN)C(=O)NCC(=O)N[C@H](C(=O)N[C@@H](C)C(=O)N[C@@H](Cc1ccc(O)cc1)C(=O)N[C@H](C(=O)N[C@@H](CCC(=O)O)C(=O)N[C@@H](Cc1ccccc1)C(=O)N[C@@H](CCCCN)C(N)=O)[C@@H](C)CC)[C@@H](C)CC` [L1P3V8] (Palmitoyl-DGKSKGIAYIEFK-NH2), the AUC0-last [1, 6] was 2277 ± 558^*** min * nmol/L, the T1/2 [1, 6] was 37 ± 5 min and the Tmax [1, 6] was 18 ± 1 min. The Cmax [1, 7] was 74 ± 13^*** nmol/L, the level at time molar at 1.5 h ([1]; Sprague-Dawley, rat, in vivo, iv, 3 umol/kg) was 190 nM and the AUC(0-t) [1, 8] was 2.99 µM·h. For the same molecule, the Cmax [1, 8] was 10400 ± 1220 nM, the Tmax [1, 8] was 2 min and the half-life [1, 8] was 17 ± 4 min. For the same molecule, the cellular uptake level [2] was “low cellular concentration”, the “cellular uptake level compared to P3V8” value ([2]; 500 nM and 1 µM peptide) was “higher cellular concentration” and the “cytotoxicity (LDH release)” value [3] was “no cytotoxicity; also recorded: no cytotoxic effects”. It also gave a remaining at 3 h, 2000 ng/mL ([4]; male, Sprague-Dawley, plasma, read-out: Percentage of remained) of 86.9 ± 5.5%, a remaining at 1 h, 500 ng/mL [4, 9] of 88.1 ± 4.9% and a remaining at 3 h, 500 ng/mL ([4]; male, Sprague-Dawley, rat plasma, 500 ng/mL, 37 °C, incubation 3 hr, LC/MS/MS, mean ± S.E.M. of 5, read-out: Percentage of remained) of 73.8 ± 5.7%. It also gave a remaining at 3 h, 1000 ng/mL [4, 10] of 81.2 ± 1.5%, a remaining at 1 h, 2000 ng/mL ([4]; male, Sprague-Dawley, rat plasma, 2000 ng/mL, 37 °C, 100 rpm, incubation 1 hr, LC/MS/MS, mean ± S.E.M. of 5 independent experiments, read-out: Percentage of remained) of 98.8 ± 5% and a Percentage of remained ([4]; rat plasma, 1000 ng/mL, 37 °C, incubation 1 hr, LC/MS/MS, mean ± S.E.M. of 5) of 98.7 ± 3.9 %. For the same molecule, the Percentage of remained [4, 11] was “nearly all L1P3V8 remained intact”, the remaining at 1 h, 500 ng/mL [5, 12] was < 20% and the remaining at 3 h, 500 ng/mL [5, 12] was < 20%. The remaining at 1 h, 1000 ng/mL ([5]; male, Sprague-Dawley, tissue homogenate, rat brain homogenate, 37 °C, LC/MS/MS, mean ± S.E.M. of 5, read-out: Percentage of remained) was 22.8 ± 1.2%, the remaining at 3 h, 1000 ng/mL ([5]; male, Sprague-Dawley, tissue homogenate, rat brain homogenate, 37 °C, incubation 3 hr, LC/MS/MS, mean ± S.E.M. of 5, LLOQ 12.5 ng/mL P3V8, read-out: Percentage of remained) was 15.8 ± 0.7% and the remaining at 1 h, 2000 ng/mL ([5]; male, Sprague-Dawley, tissue homogenate, rat brain homogenate, 2000 ng/mL, 37 °C, LC/MS/MS, mean ± S.E.M. of 5, read-out: Percentage of remained) was 45 ± 3.5%. The remaining at 3 h, 2000 ng/mL ([5]; male, Sprague-Dawley, tissue homogenate, rat brain homogenate, 2000 ng/mL, 37 °C, incubation 3 hr, LC/MS/MS, mean ± S.E.M. of 5, LLOQ 12.5 ng/mL P3V8, read-out: Percentage of remained) was 21.2 ± 3%.
With Ac-DGKSKGIAYIEFK-NH2 [P3V8] the AUC0-last [1, 6] was 85 ± 32 nmol·min/L, the Tmax [1, 6] was 15 min and 15 ± 4 min and the Cmax [1, 7] was 12 ± 2 nM. It also gave a Tmax ([1]; Sprague-Dawley, rat, plasma, iv, 3 umol/kg) of 2 min, an AUC(0-t) [1, 13] of 0.0202 µM·h and a Cmax [1, 13] of 452 ± 22 nM. The cellular uptake level [2] was “no uptake”, the “cytotoxicity (LDH release)” value [3] was “no cytotoxicity; also recorded: no significant cell death” and the remaining at 3 h, 2000 ng/mL ([4]; male, Sprague-Dawley, rat plasma, read-out: Percentage of remained) was < 0.6%. For the same molecule, the remaining at 1 h, 500 ng/mL [4, 9] was < 2.5%, the remaining at 1 h, 1000 ng/mL ([4]; male, Sprague-Dawley, rat plasma, 1000 ng/mL, 37 °C, incubation 1 hr, LC/MS/MS, mean ± S.E.M. of 5, read-out: Percentage of remained) was 8.6 ± 0.5% and the remaining at 3 h, 1000 ng/mL [4, 10] was < 1.3%. For the same molecule, the Percentage of remained [4, 11] was 20.7 ± 3.3%, the Percentage of remained ([4]; rat plasma, 2000 ng/mL, 37 °C, 100 rpm, incubation 3 hr, LC/MS/MS, mean ± S.E.M. of 5, LLOQ 12.5 ng/mL P3V8, 100 ng/mL L1P3V8) was “almost completely degraded” and the remaining at 1 h, 500 ng/mL ([5]; male, Sprague-Dawley, rat, rat brain homogenate, read-out: Percentage of remained) was < 2.5%. The remaining at 1 h, 1000 ng/mL ([5]; male, Sprague-Dawley, rat brain homogenate, 37 °C, LC/MS/MS, mean ± S.E.M. of 5, read-out: Percentage of remained) was 4 ± 1.6%, the remaining at 3 h, 1000 ng/mL ([5]; male, Sprague-Dawley, rat brain homogenate, 37 °C, incubation 3 hr, LC/MS/MS, mean ± S.E.M. of 5, LLOQ 12.5 ng/mL P3V8, read-out: Percentage of remained) was < 1.3% and the remaining at 1 h, 2000 ng/mL ([5]; male, Sprague-Dawley, rat brain homogenate, 2000 ng/mL, 37 °C, LC/MS/MS, mean ± S.E.M. of 5, read-out: Percentage of remained) was 3.3 ± 0.6%. The remaining at 3 h, 2000 ng/mL ([5]; male, Sprague-Dawley, rat brain homogenate, 2000 ng/mL, 37 °C, incubation 3 hr, LC/MS/MS, mean ± S.E.M. of 5, LLOQ 12.5 ng/mL P3V8, read-out: Percentage of remained) was < 0.6% and the Percentage of remained ([5]; rat brain homogenate, 2000 ng/mL, 37 °C, incubation 3 hr, LC/MS/MS, mean ± S.E.M. of 5, LLOQ 12.5 ng/mL P3V8) was “almost completely degraded”.
